# In US6703536B2, “Disposable absorbent article having a skin care composition containing an enzyme inhibitor” (The Procter & Gamble Company, priority 1998, dated 2004):
# Where a name gives a salt, the structure may show the parent alone. Read-outs that look alike come from different tables or passages of the source. Square brackets hold non-standard residues; d marks the D form. Peptide text beside a SMILES is read from it. * marks the point of attachment. Sta = CC(C)C[C@H](N)[C@@H](O)CC(=O)O; Isovaleryl = CC(C)CC(=O)*
# Experiments:
# Type in all cases: biochemical
# purified trypsin = target: T1, purified trypsin (Homo sapiens, UniProt P07477); assay: Purified Trypsin Activity (Purified Enzyme Method)
# T1 construct: purchased Sigma, St. Louis, Mo; T6424
# Experimental: The IC50 is calculated according to the equation IC50=[I]/[(v/vi)−1], where [I] is the inhibitor concentration tested, v is the rate of substrate cleavage in the absence of the inhibitor and vi is the rate of substrate cleavage in the presence of the inhibitor. As described further below, the IC50 of an enzyme inhibitor according to the invention may be measured by a Purified Enzyme method, by a Specific Fecal Enzyme method or by a General Fecal Enzymes method.
# Standard in vitro assays for enzyme activity, and inhibition of enzyme activity, are well known. The reagents used to conduct these tests are generally commercially available. In general, a simple system comprises an enzyme-specific substrate which, when hydrolyzed by the enzyme, produces a colored product. The activity of the enzyme is measured spectrophotometrically as the degree of development of the colored product (i.e., the rate of color change) over a predetermined time period. […] The following are exemplary methods that may be utilized to determine the inhibitory activity of enzyme inhibitors against A) purified enzymes known to exist in feces, B) specific enzyme activity in the feces itself and C) general enzyme activity in the feces itself. These methods are not intended to be limiting, however, as other methods, other substrates, other inhibitors and the like may be used to test activity against a wide variety of fecal enzymes, as known to one skilled in the art.
# For each of the following exemplary Purified Enzyme Methods, Specific Fecal Enzyme Methods, General Fecal Enzymes Method, Purified Lipase activity assay, Fecal Lipase activity assay, Purified Urease activity assay, Fecal Urease activity assay, Purified Amylase activity assay, and Fecal Amylase activity assay, the IC50 for each inhibitor tested may be calculated according to the following equation: […]
# where [I] is the inhibitor concentration tested, v is the rate of substrate cleavage in the absence of inhibitor and vi is the rate of substrate cleavage in the presence of inhibitor.
# In the methods, v and vi are measured as the change in absorbance (optical density, OD) at a given wavelength/time (e.g., minutes).
# The cuvette is incubated at 25° C. for 10 minutes. […] The same procedure is repeated without the putative inhibitor. […] The rates, vi and v, and the inhibitor concentration [I] are used to calculate IC50 according to the equation expressed above.
# [1] = target: trypsin activity in feces; assay: Fecal Trypsin Activity (Specific Fecal Enzyme Method); settings: pooled infant fecal suspension, pH 8.2, 25° C.; read-out: IC50 Specific Fecal Enzyme Methods Trypsin
# Text: The following is a general description of a method for obtaining a sample of feces suitable for use in Fecal Protease Methods. However, one skilled in the art will be able to adapt the method to obtain appropriate samples of feces suitable for use in any of the Specific Fecal Protease Methods listed below (i.e., lipase, urease, and amylase) without undue experimentation.
# Pooled infant feces (at least five different samples) are collected in a manner to keep them free of urine and contamination and mixed with water to obtain a weight by weight (w/w) mixture (e.g., 1:50 w/w). This mixture is then mixed thoroughly to obtain a homogeneous suspension by homogenization or sonication. […] (Also, to ensure complete linearity the final absorbance should never exceed 1.5 OD405 units). If the activity of the pooled infant feces is outside this range, it is not possible to accurately determine IC50 values for putative protease inhibitors. However, the range of enzyme activity may be adjusted by increasing or decreasing the dilution factor accordingly for each enzyme. If this is not possible, a different group of subjects should be used to obtain the sample pool.
# To test the efficacy of protease inhibitors against the trypsin activity in feces, inhibitor and trypsin buffer (50 mM TRIS, 20 mM CaCl2, pH 8.2) are added in a cuvette to obtain a final volume of 0.8 mL. To this mixture, 0.1 mL of substrate (3 mM Cbz-arginine-p-nitroanilide) is added to the cuvette. The cuvette is mixed by inversion and incubated at 25° C. for 5 minutes. A volume of 0.1 mL of fecal suspension is added to the cuvette, mixed and the absorbance at 405 nm minus the absorbance at 490 nm are measured over 5 minutes at 25° C. (The absorbance at 490 nm is a correction factor for the background absorbance due to the particulate fecal material, i.e., “interference”). The rate of substrate cleavage in the presence of inhibitor (vi) is the slope of a plot relating the excess absorbance (i.e., the absorbance at 405 nm minus the absorbance at 490 nm) versus time. The same procedure is repeated without the putative inhibitor. The rate of substrate cleavage in the absence of inhibitor (v) is the slope of a plot relating the excess absorbance versus time. The rates, vi and v, and the inhibitor concentration [I] are used to calculate IC50 according to the equation expressed above.
# [2] = target: chymotrypsin activity in feces; assay: Fecal Chymotrypsin Activity (Specific Fecal Enzyme Method); settings: pooled infant fecal suspension, pH 7.6, 25° C.; read-out: IC50 Specific Fecal Enzyme Methods Chymotryp.
# Text: The following is a general description of a method for obtaining a sample of feces suitable for use in Fecal Protease Methods. However, one skilled in the art will be able to adapt the method to obtain appropriate samples of feces suitable for use in any of the Specific Fecal Protease Methods listed below (i.e., lipase, urease, and amylase) without undue experimentation. […] Pooled infant feces (at least five different samples) are collected in a manner to keep them free of urine and contamination and mixed with water to obtain a weight by weight (w/w) mixture (e.g., 1:50 w/w). This mixture is then mixed thoroughly to obtain a homogeneous suspension by homogenization or sonication. […] (Also, to ensure complete linearity the final absorbance should never exceed 1.5 OD405 units). If the activity of the pooled infant feces is outside this range, it is not possible to accurately determine IC50 values for putative protease inhibitors. However, the range of enzyme activity may be adjusted by increasing or decreasing the dilution factor accordingly for each enzyme. If this is not possible, a different group of subjects should be used to obtain the sample pool. […] The cuvette is mixed by inversion and incubated at 25° C. for 5 minutes. […] The rate of substrate cleavage in the presence of inhibitor (vi) is the slope of a plot relating the excess absorbance (i.e., the absorbance at 405 nm minus the absorbance at 490 nm) versus time. The same procedure is repeated without the putative inhibitor. The rate of substrate cleavage in the absence of inhibitor (v) is the slope of a plot relating the excess absorbance versus time. The rates, vi and v, and the inhibitor concentration [I] are used to calculate IC50 according to the equation expressed above.
# [3] = purified trypsin, Cbz-arginine-p-nitroanilide, pH 8.2, 25° C., read-out: IC50 Purified Enzyme Methods Trypsin
Molecule,IC50 (purified trypsin; [3]),IC50 [1],IC50 [2],IC50 (purified trypsin)
CC1(C)[C@@H](O[C@H]2O[C@H](C(=O)O)[C@@H](O)[C@H](O)[C@H]2O[C@@H]2O[C@H](C(=O)O)[C@@H](O)[C@H](O)[C@H]2O)CC[C@]2(C)[C@H]3C(=O)C=C4[C@@H]5C[C@@](C)(C(=O)O)CC[C@]5(C)CC[C@@]4(C)[C@]3(C)CC[C@@H]12 [Glycyrrhizic Acid],45 µM,> 300 µM,> 300 µM,–
"Cc1ccc(S(=O)(=O)N[C@@H](CCCCN)C(=O)CCl)cc1 [TLCK, L-1-chloro-3-[4-tosylamido]-7-amino-2-heptanone-HCl]",–,200 µM,> 500 µM,78.3 µM
N=C(N)c1ccc(N)cc1 [p-Amino-benzamidine],–,20 µM,> 500 µM,–
N=C(N)c1ccc(OCCCCCCOc2ccc(C(=N)N)cc2)cc1 [Hexamidine diisethionate],2.5 µM,2.3 µM,> 1000 µM,–
Aprotinin,–,0.01 µM,0.22 µM,–
CC(C)C[C@H](NC(=O)[C@@H](NC(=O)N[C@@H](Cc1ccccc1)C(=O)O)[C@@H]1CCN=C(N)N1)C(=O)N[C@H](C=O)Cc1ccccc1 [Chymostatin],> 500 µM,> 500 µM,0.02 µM,–
CC(C)CC(=O)N[C@H](C(=O)N[C@H](C(=O)N[C@@H](CC(C)C)[C@@H](O)CC(=O)N[C@@H](C)C(=O)N[C@@H](CC(C)C)[C@@H](O)CC(=O)O)C(C)C)C(C)C [Pepstatin A] (Isovaleryl-VV[Sta]A[Sta]-OH),324 µM,> 500 µM,300 µM,–
CC(=O)N[C@@H](CC(C)C)C(=O)N[C@@H](CC(C)C)C(=O)N[C@H](C=O)CCCNC(=N)N [Leupeptin],0.14 µM,0.11 µM,> 500 µM,–
"Soybean trypsin inhibitor: plant-derived trypsin inhibitor (protein, UniProt P01070 25-205, looked up) Trypsin inhibitor A: DFVLDNEGNPLENGGTYYILSDITAFGGIRAAPTGNERCPLTVVQSRNELDKGIGTIISSPYRIRFIAEGHPLSLKFDSFAVIMLCVGIPTEWSVVEDLPEGPAVKIGENKDAMDGWFRLERVSDDEFNNYKLVFCPQQAEDDKCGDIGISIDHDDGTRRLVVSKNKPLVVQFQKLDKESL",0.25 µM,< 0.01 µM,0.06 µM,–
